Laboratory results published in US12357711B2, “PSMA binding dual mode radiotracer and therapeutic” (Technische Universität München, priority 2019, dated 2025).
Where “and” joins values, the source holds several entries; their conditions need not be identical. Equal entries are not always repeated.

What was measured:
[1] = system: LNCaP tumor-bearing SCID mice; assay: Biodistribution at 1 h p.i.; format: in vivo
Protocol: FIG. 10: Biodistribution (in % ID/g) of ^18E-labeled rhPSMA tracers at 1 h p.i in LNCaP tumor-bearing SCID mice. Data are expressed as mean±SD (n=4 for rhPSMA7.1, n=5 for 7.2, n=4 for 7.3, n=5 for 7.4 and n=3 for 7-rac).

[2] = system: patients; assay: Human biodistribution and uptake in tumor lesions (PET/CT, SUV); format: in vivo; conditions: for ratio SUVmax to background, mean / ratio SUVmean to background, mean: human PET/CT, background gluteal muscle
Protocol: Human biodistribution was estimated by analysing clinical ^18F-rhPSMA-7- and ^18F-rhPSMA-7.3-PET/CT exams in 47 and 32 patients, respectively.
The mean and maximum standardized uptake values (SUVmean/SUVmax) were determined for background (gluteal muscle), normal organs (salivary glands, blood pool, lung, liver, spleen, pancreas, duodenum, kidney, bladder, bone) and three representative tumor lesions. Tumor uptake was analyzed in 89 lesions (26 primary tumors/local recurrences, 23 bone, 38 lymph node and 2 visceral metastases) and 63 lesions (14 primary tumors/local recurrences, 30 bone, 18 lymph node and 1 visceral metastases) for ^18F-rhPSMA-7 and ^18F-rhPSMA-7.3, respectively.
Organ-background and Tumor-background ratios were calculated.

[3] = clinical PET/CT, gluteal muscle
[4] = clinical PET/CT, non-diseased bone
[5] = clinical PET/CT, listed as 18F-rhPSMA-7.3

CC(C)(C)[Si](F)(c1ccc(C(=O)NC[C@@H](NC(=O)CC[C@@H](C(=O)O)N2CCN(CC(=O)[O-])CCN(CC(=O)[O-])CCN(CC(=O)[O-])CC2)C(=O)N[C@H](CCCCNC(=O)CCC(=O)NCCC[C@@H](NC(=O)CC[C@H](NC(=O)N[C@@H](CCC(=O)O)C(=O)O)C(=O)O)C(=O)O)C(=O)O)cc1)C(C)(C)C.[Ga+3] [rhPSMA7.3, [^19F][^natGa]D-Dap-S-DOTAGA-rhPSMA7]
Biodistribution adrenals [1]: 2.2 ± 0.83 % ID/g | Biodistribution blood [1]: 0.96 ± 0.24 % ID/g | Biodistribution bone [1]: 0.38 ± 0.32 % ID/g | Biodistribution heart [1]: 0.87 ± 0.17 % ID/g | Biodistribution intestine [1]: 0.35 ± 0.07 % ID/g | Biodistribution kidneys [1]: 292 ± 45.1 % ID/g | Biodistribution liver [1]: 0.69 ± 0.13 % ID/g | Biodistribution lung [1]: 2.2 ± 0.35 % ID/g | Biodistribution muscle [1]: 0.33 ± 0.15 % ID/g | Biodistribution pancreas [1]: 0.63 ± 0.44 % ID/g | Biodistribution spleen [1]: 16.6 ± 2.6 % ID/g | Biodistribution stomach [1]: 0.44 ± 0.23 % ID/g | Biodistribution tumor ([1]; LNCaP tumor): 18.3 ± 7.2 % ID/g | ratio SUVmax to background, mean ([2]; bladder): 3.1 | ratio SUVmean to background, mean ([2]; bladder): 3.1 | ratio SUVmax to background, mean ([2]; bloodpool): 2.8 | ratio SUVmean to background, mean ([2]; bloodpool): 2.9 | ratio SUVmax to background, mean ([2]; bone): 2.0 | ratio SUVmean to background, mean ([2]; bone): 2.1 | SUVmax bladder, max ([2]; clinical PET/CT): 6.0 | SUVmax bladder, mean ([2]; clinical PET/CT): 3.1 | SUVmax bladder, min ([2]; clinical PET/CT): 1.1 | SUVmax bloodpool, max ([2]; clinical PET/CT): 3.9 | SUVmax bloodpool, mean ([2]; clinical PET/CT): 2.8 | SUVmax bloodpool, min ([2]; clinical PET/CT): 1.9 | SUVmax duodenum, max ([2]; clinical PET/CT): 32.2 | SUVmax duodenum, mean ([2]; clinical PET/CT): 16.4 | SUVmax duodenum, min ([2]; clinical PET/CT): 6.1 | SUVmax kidney, max ([2]; clinical PET/CT): 99.9 | SUVmax kidney, mean ([2]; clinical PET/CT): 51.9 | SUVmax kidney, min ([2]; clinical PET/CT): 30.9 | SUVmax liver, max ([2]; clinical PET/CT): 15.4 | SUVmax liver, mean ([2]; clinical PET/CT): 9.7 | SUVmax liver, min ([2]; clinical PET/CT): 4.6 | SUVmax lungs, max ([2]; clinical PET/CT): 1.9 | SUVmax lungs, mean ([2]; clinical PET/CT): 1.1 | SUVmax lungs, min ([2]; clinical PET/CT): 0.7 | SUVmax pancreas, max ([2]; clinical PET/CT): 7.8 | SUVmax pancreas, mean ([2]; clinical PET/CT): 4.2 | SUVmax pancreas, min ([2]; clinical PET/CT): 2.4 | SUVmax parotic gland, max ([2]; clinical PET/CT): 38.3 | SUVmax parotic gland, mean ([2]; clinical PET/CT): 24.6 | SUVmax parotic gland, min ([2]; clinical PET/CT): 11.2 | SUVmax spleen, max ([2]; clinical PET/CT): 22.5 | SUVmax spleen, mean ([2]; clinical PET/CT): 11.4 | SUVmax spleen, min ([2]; clinical PET/CT): 5.0 | SUVmax submandibular gland, max ([2]; clinical PET/CT): 47.4 | SUVmax submandibular gland, mean ([2]; clinical PET/CT): 28.4 | SUVmax submandibular gland, min ([2]; clinical PET/CT): 14.6 | SUVmean bladder, max ([2]; clinical PET/CT): 4.1 | SUVmean bladder, min ([2]; clinical PET/CT): 0.7 | SUVmean bloodpool, max ([2]; clinical PET/CT): 2.5 | SUVmean bloodpool, min ([2]; clinical PET/CT): 1.3 | SUVmean duodenum, max ([2]; clinical PET/CT): 23.0 | SUVmean duodenum, mean ([2]; clinical PET/CT): 11.0 | SUVmean duodenum, min ([2]; clinical PET/CT): 3.0 | SUVmean kidney, max ([2]; clinical PET/CT): 70.6 | SUVmean kidney, mean ([2]; clinical PET/CT): 35.5 | SUVmean kidney, min ([2]; clinical PET/CT): 20.7 | SUVmean liver, max ([2]; clinical PET/CT): 12.3 | SUVmean liver, mean ([2]; clinical PET/CT): 7.3 | SUVmean liver, min ([2]; clinical PET/CT): 3.2 | SUVmean lungs, max ([2]; clinical PET/CT): 1.1 | SUVmean lungs, mean ([2]; clinical PET/CT): 0.7 | SUVmean lungs, min ([2]; clinical PET/CT): 0.4 | SUVmean pancreas, max ([2]; clinical PET/CT): 5.2 | SUVmean pancreas, mean ([2]; clinical PET/CT): 2.8 | SUVmean pancreas, min ([2]; clinical PET/CT): 1.6 | SUVmean parotic gland, max ([2]; clinical PET/CT): 25.0 | SUVmean parotic gland, mean ([2]; clinical PET/CT): 16.0 | SUVmean parotic gland, min ([2]; clinical PET/CT): 8.2 | SUVmean spleen, max ([2]; clinical PET/CT): 17.9 | SUVmean spleen, mean ([2]; clinical PET/CT): 8.5 | SUVmean spleen, min ([2]; clinical PET/CT): 3.7 | SUVmean submandibular gland, max ([2]; clinical PET/CT): 33.4 | SUVmean submandibular gland, mean ([2]; clinical PET/CT): 19.6 | SUVmean submandibular gland, min ([2]; clinical PET/CT): 10.4 | tracer retention in the bladder compared with ^18F-rhPSMA-7 ([2]; clinical PET/CT): significantly lower | uptake in tumor lesions compared with ^18F-rhPSMA-7 ([2]; clinical PET/CT): significantly higher | SUVmax background, max [2, 3]: 1.7 | SUVmax background, mean [2, 3]: 1.0 | SUVmax background, min [2, 3]: 0.6 | SUVmean background, max [2, 3]: 1.1 | SUVmean background, mean [2, 3]: 0.7 | SUVmean background, min [2, 3]: 0.4 | SUVmax bone, max [2, 4]: 3.4 | SUVmax bone, mean [2, 4]: 2.1 | SUVmax bone, min [2, 4]: 1.1 | SUVmean bone, max [2, 4]: 2.2 | SUVmean bone, mean [2, 4]: 1.3 | SUVmean bone, min [2, 4]: 0.7 | SUVmax tumor, max ([2]; clinical PET/CT, tumor lesions): 316.0 | SUVmax tumor, mean ([2]; clinical PET/CT, tumor lesions): 44.0 | SUVmax tumor, min ([2]; clinical PET/CT, tumor lesions): 2.4 | SUVmean tumor, max ([2]; clinical PET/CT, tumor lesions): 224.1 | SUVmean tumor, min ([2]; clinical PET/CT, tumor lesions): 1.6 | SUVmean tumor, mean ([2]; clinical PET/CT, tumor lesions, listed as 18F-rhPSMA-7.3): 32.5±42.7 and 32.5 | SUVmean bladder, mean [2, 5]: 2.0 and 2.0±0.8 | SUVmean bloodpool, mean [2, 5]: 1.9 and 1.8 | ratio SUVmax to background, mean ([2]; duodenum): 16.2 | ratio SUVmean to background, mean ([2]; duodenum): 17.1 | ratio SUVmax to background, mean ([2]; kidney): 51.8 | ratio SUVmean to background, mean ([2]; kidney): 55.6 | ratio SUVmax to background, mean ([2]; liver): 9.7 | ratio SUVmean to background, mean ([2]; liver): 11.4 | ratio SUVmax to background, mean ([2]; lungs): 1.0 | ratio SUVmean to background, mean ([2]; lungs): 1.0 | ratio SUVmax to background, mean ([2]; pancreas): 4.1 | ratio SUVmean to background, mean ([2]; pancreas): 4.4 | ratio SUVmax to background, mean ([2]; parotid gland): 24.7 | ratio SUVmean to background, mean ([2]; parotid gland): 25.2 | ratio SUVmax to background, mean ([2]; spleen): 11.4 | ratio SUVmean to background, mean ([2]; spleen): 13.3 | ratio SUVmax to background, mean ([2]; submandibular gland): 28.2 | ratio SUVmean to background, mean ([2]; submandibular gland): 30.6 | ratio SUVmax to background, mean ([2]; tumor lesions): 43.6 | ratio SUVmean to background, mean ([2]; tumor lesions): 50.8
